The values below come from patent publication US20170216401A1, “COMBINATION FOR USE IN A METHOD OF TREATING CANCER” (priority 2014, published 2017).

Data set [1] concerns human glioma cells HTZ-349 and A-172. The data set is described as follows: cell-mediated tumor cytotoxicity assay, calcein release (CARE-LASS). The format is cell-based. Conditions: PBMC and target cells preincubated 6 days with SD-208, IL-2 and GM-CSF; effector/target 1:100, 1:10, 1:1; 4 hours; FIG. 2. As for the experimental part:
Establishment and culture of primary tumor cell cultures were performed as previously described (Jachimczak et al., 1993). Briefly, tumor specimens were cultivated in Dulbecco's minimum essential medium (DMEM) containing 10% FCS, 1% BME vitamin solution, and 1% MEM nonessential amino acids. HTZ-349 was established as primary cell culture from a patient suffering from glioblastoma multiforme (GBM, Grade IV). A-172 cells were obtained from ATCC (GBM). Peripheral blood mononuclear cells (PBMC) were isolated from venous blood of two healthy donors by standard Ficoll-Hypaque gradient centrifugation (Jachimczak et al., 1993).
PBMC were activated with IL-2 (Proleukin S) and GM-CSF. Immune cell cytotoxicity against the target tumor cells was determined in a calcein-release assay (Lichtenfels et al., 1994) by adding pre-activated PBMC to glioma target cells at an effector/target ratio of 1:100, 1:10 and 1:1. After 4 hours, fluorescence of supernatants was analyzed (Fluoroscan, Germany) and calculated as described (Lichtenfels et al., 1994).

Data set [2] has as its system TGF-beta signal transduction. The settings on record: p-SMAD2 western blot (Gaspar et al., 2007); cited from earlier work. (Immunoblotting shows a protein as a band on a membrane.)

Turning to `Fc1ccc(Cl)cc1-c1nc(Nc2ccncc2)c2nccnc2n1` [SD-208], in data set [1], the “allogenous cell cytotoxicity against glioma target cells” value is recorded as “enhanced”. Besides, in data set [2], the “inhibition of TGF-beta signal transduction” value was “inhibits TGF-beta signal transduction in a dose-dependent fashion”.
